Activity calls are given as the source filed them. No cut-off for these calls is given here.
Key:
[1] = system: BXPC-3; assay: Cytotoxicity against human BxPC3 cells assessed as growth inhibition after 24 hrs by MTT assay; format: functional, cell-based; conditions: BXPC-3, 24 h
[2] = system: HT-29; assay: Cytotoxicity against human HT-29 cells assessed as growth inhibition after 24 hrs by MTT assay; format: functional, cell-based; conditions: HT-29, 24 h
[3] = system: MCF7; assay: Cytotoxicity against human MCF7 cells assessed as growth inhibition after 24 hrs by MTT assay; format: functional, cell-based; conditions: MCF7, 24 h
[4] = system: Jurkat; assay: Cytotoxicity against human Jurkat cells assessed as growth inhibition after 24 hrs by MTT assay; format: functional, cell-based
[5] = system: HT-29; assay: Cell cycle arrest in human HT-29 cells assessed as increase in G2/M phase after 24 hrs using propidium iodide staining-based flow cytometry; format: functional
[6] = system: HT-29; assay: Antiproliferative activity against human HT-29 cells assessed as decrease of PCNA expression after 24 hrs by ELISA; format: functional, cell-based
[7] = system: HT-29; assay: Cell cycle arrest in human HT-29 cells assessed as reduction in G0/G1 phase at 100 to 300 uM after 24 hrs using propidium iodide staining-based flow cytometry; format: functional
[8] = system: HT-29; assay: Induction of apoptosis in human HT-29 cells at 300 uM after 24 hrs using annexin V-FITC and propidium iodide staining by flow cytometry; format: functional
[9] = system: HT-29; assay: Cell cycle arrest in human HT-29 cells assessed as increase in S phase at 100 to 300 uM after 24 hrs using propidium iodide staining-based flow cytometry; format: functional
[10] = system: HT-29; assay: Cell cycle arrest in human HT-29 cells assessed as reduction in G0/G1 phase after 24 hrs using propidium iodide staining-based flow cytometry; format: functional
[11] = system: HT-29; assay: Induction of apoptosis in human HT-29 cells at 100 uM after 24 hrs using annexin V-FITC and propidium iodide staining by flow cytometry; format: functional
[12] = system: HT-29; assay: Cell cycle arrest in human HT-29 cells assessed as increase in G2/M phase at 100 to 300 uM after 24 hrs using propidium iodide staining-based flow cytometry; format: functional
[13] = system: A549; assay: Ratio of p-NO-ASA IC50 to compound IC50 for human A549 cells assessed as growth inhibition after 48 hrs by trypan blue assay; format: functional
[14] = system: HT-29; assay: Ratio of p-NO-ASA IC50 to compound IC50 for human HT-29 cells assessed as growth inhibition after 48 hrs by trypan blue assay; format: functional
[15] = system: HCT-15; assay: Ratio of p-NO-ASA IC50 to compound IC50 for human HCT15 cells assessed as growth inhibition after 48 hrs by trypan blue assay; format: functional
[16] = system: HT-29; assay: Cell cycle arrest in human HT-29 cells assessed as accumulation of cells at S phase at 10 uM after 24 hrs using propidium iodide staining-based flow cytometry (reference value: 19.4%); format: functional
[17] = system: LNCaP; assay: Ratio of p-NO-ASA IC50 to compound IC50 for human LNCAP cells assessed as growth inhibition after 48 hrs by trypan blue assay; format: functional
[18] = system: SCC-25; assay: Ratio of p-NO-ASA IC50 to compound IC50 for human SCC25 cells assessed as growth inhibition after 48 hrs by trypan blue assay; format: functional
[19] = system: HT-29; assay: Cell cycle arrest in human HT-29 cells assessed as accumulation of cells at G2/M phase at 3 uM after 24 hrs using propidium iodide staining-based flow cytometry (reference value: 5.8%); format: functional
[20] = system: HT-29; assay: Induction of apoptosis in human HT-29 cells at 50 uM after 24 hrs using annexin V-FITC and propidium iodide staining by flow cytometry; format: functional
[21] = system: HT-29; assay: Induction of apoptosis in human HT-29 cells at 10 uM after 24 hrs using annexin V-FITC and propidium iodide staining by flow cytometry; format: functional
[22] = system: HT-29; assay: Induction of apoptosis in human HT-29 cells after 24 hrs using annexin V-FITC and propidium iodide staining by flow cytometry; format: functional, cell-based
[23] = system: HT-29; assay: Cell cycle arrest in human HT-29 cells assessed as accumulation of cells at G0/G1 phase at 10 uM after 24 hrs using propidium iodide staining-based flow cytometry (reference value: 74.8%); format: functional
[24] = system: BXPC-3; assay: Ratio of p-NO-ASA IC50 to compound IC50 for human BxPC3 cells assessed as growth inhibition after 48 hrs by trypan blue assay; format: functional
[25] = system: HT-29; assay: Cell cycle arrest in human HT-29 cells assessed as accumulation of cells at G2/M phase at 10 uM after 24 hrs using propidium iodide staining-based flow cytometry (reference value: 5.8%); format: functional
[26] = system: MIA PaCa-2; assay: Ratio of p-NO-ASA IC50 to compound IC50 for human MIAPaCa2 cells assessed as growth inhibition after 48 hrs by trypan blue assay; format: functional
[27] = system: HT-29; assay: Cell cycle arrest in human HT-29 cells assessed as accumulation of cells at S phase at 3 uM after 24 hrs using propidium iodide staining-based flow cytometry (reference value: 19.4%); format: functional
[28] = system: HT-29; assay: Cell cycle arrest in human HT-29 cells assessed as accumulation of cells at G0/G1 phase at 3 uM after 24 hrs using propidium iodide staining-based flow cytometry (reference value: 74.8%); format: functional
[29] = system: LNCaP; assay: Cytotoxicity against human LNCAP cells assessed as growth inhibition after 48 hrs by trypan blue assay; format: functional, cell-based
[30] = system: A549; assay: Cytotoxicity against human A549 cells assessed as growth inhibition after 48 hrs by trypan blue assay; format: functional, cell-based; conditions: A549, 48 h
[31] = system: HCT-15; assay: Cytotoxicity against human HCT15 cells assessed as growth inhibition after 48 hrs by trypan blue assay; format: functional, cell-based; conditions: HCT-15, 48 h
[32] = system: BXPC-3; assay: Cytotoxicity against human BxPC3 cells assessed as growth inhibition after 48 hrs by trypan blue assay; format: functional, cell-based; conditions: BXPC-3, 48 h
[33] = system: MIA PaCa-2; assay: Cytotoxicity against human MIAPaCa2 cells assessed as growth inhibition after 48 hrs by trypan blue assay; format: functional, cell-based; conditions: MIA PaCa-2, 48 h
[34] = system: HT-29; assay: Cytotoxicity against human HT-29 cells assessed as growth inhibition after 48 hrs by trypan blue assay; format: functional, cell-based; conditions: HT-29, 48 h
[35] = system: SCC-25; assay: Cytotoxicity against human SCC25 cells assessed as growth inhibition after 48 hrs by trypan blue assay; format: functional, cell-based; conditions: SCC-25, 48 h

Question: CCOP(=O)(OCC)OCc1ccccc1OC(C)=O was tested. Which IC50 [1] did it give?
Answer: 155 µM

Question: What about the IC50 [2] of the same molecule?
Answer: 82.7 µM

Question: What about the IC50 [3] of the same molecule?
Answer: 62.7 µM

Question: And the IC50 [4]?
Answer: 110 µM

Question: CCOP(=O)(OCC)OCc1cccc(OC(C)=O)c1 was tested. Which Activity [5] did it give?
Answer: Active

Question: What about the IC50 [1] of the same molecule?
Answer: 162 µM

Question: And the Activity [6]?
Answer: Dose-dependent effect

Question: And the IC50 [2]?
Answer: 273 µM

Question: And the IC50 [3]?
Answer: 214 µM

Question: What about the Activity [7] of the same molecule?
Answer: Active

Question: And the Activity [8]?
Answer: 79%

Question: What about the Activity [9] of the same molecule?
Answer: Active

Question: What about the Activity [10] of the same molecule?
Answer: Dose-dependent effect

Question: What about the IC50 [4] of the same molecule?
Answer: 451 µM

Question: What about the Activity [11] of the same molecule?
Answer: 19%

Question: And the Activity [12]?
Answer: Active

Question: What does the source list for CCOP(=O)(OCC)OCc1ccc(OC(C)=O)c(C)c1?
Answer: IC50 [1]: 0.28 µM; IC50 [2]: 0.31 µM; IC50 [3]: 0.32 µM; IC50 [4]: 0.29 µM

Question: CCOP(=O)(OCC)OCc1ccc(OC(C)=O)c(Cl)c1 was tested. Which IC50 [1] did it give?
Answer: 0.65 µM

Question: What about the IC50 [2] of the same molecule?
Answer: 1.3 µM

Question: And the IC50 [3]?
Answer: 0.7 µM

Question: And the IC50 [4]?
Answer: 0.68 µM

Question: Which results are given for CCOP(=O)(OCC)OCc1ccc(OC(C)=O)cc1?
Answer: Ratio IC50 [13]: 17; Activity [5]: Active; IC50 [1]: 0.67 µM; Activity [6]: Dose-dependent effect; Ratio IC50 [14]: 17; IC50 [2]: 0.82 µM; Ratio IC50 [15]: 17; Activity [16]: 40.8%; IC50 [3]: 0.67 µM; Ratio IC50 [17]: 17; Ratio IC50 [18]: 17; Activity [19]: 9.6%; Activity [20]: 79%; Activity [21]: 25%; Activity [22]: Dose-dependent effect; Activity [10]: Dose-dependent effect; Activity [23]: 42.9%; Ratio IC50 [24]: 17; Activity [25]: 16.3%; Ratio IC50 [26]: 17; IC50 [4]: 0.65 µM; Activity [27]: 38.2%; Activity [28]: 53.2%

Question: Which results are given for CC(=O)Oc1ccccc1C(=O)Oc1ccc(CO[N+](=O)[O-])cc1?
Answer: IC50 [29]: 10 µM; IC50 [30]: 10 µM; IC50 [31]: 10 µM; IC50 [32]: 10 µM; IC50 [33]: 10 µM; IC50 [34]: 10 µM; IC50 [35]: 10 µM

Source: ChEMBL document CHEMBL1921776, “Synthesis and biological activity of acetyl-protected hydroxybenzyl diethyl phosphates (EHBP) as potential chemotherapeutic agents” (Bioorg Med Chem Lett, 2011)
